# Test results reported in patent publication US7718641B2, “Pyrrolo [3,4-H] isoquinoline compounds and methods for modulating gated ion channels” (Aros Pharma ApS, priority 2005, dated 2010).
# Target: T1, rat ASIC3 (Rattus norvegicus, UniProt O35240)
# T1 construct: expressed in transfected cells; host or cells: HEK293
# T1 sequence (O35240 1-533): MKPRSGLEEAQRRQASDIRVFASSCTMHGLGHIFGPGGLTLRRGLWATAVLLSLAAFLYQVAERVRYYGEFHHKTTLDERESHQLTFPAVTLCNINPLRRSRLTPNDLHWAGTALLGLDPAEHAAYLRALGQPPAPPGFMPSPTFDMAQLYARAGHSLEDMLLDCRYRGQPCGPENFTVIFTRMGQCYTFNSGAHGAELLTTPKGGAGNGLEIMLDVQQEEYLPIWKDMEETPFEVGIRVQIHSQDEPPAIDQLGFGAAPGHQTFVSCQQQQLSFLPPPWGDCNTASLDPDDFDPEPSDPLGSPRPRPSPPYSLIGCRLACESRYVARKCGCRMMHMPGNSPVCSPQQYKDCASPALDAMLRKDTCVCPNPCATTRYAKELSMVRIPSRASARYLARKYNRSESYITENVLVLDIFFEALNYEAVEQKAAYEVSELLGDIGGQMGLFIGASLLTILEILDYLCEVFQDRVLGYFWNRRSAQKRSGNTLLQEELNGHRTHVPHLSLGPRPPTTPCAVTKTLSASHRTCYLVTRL
# Experiment: Whole-cell patch clamp of acid-induced peak inward currents in HEK293 transfected with rat ASIC3
# Assay type: cell-based
# Conditions: for inhibitory effect on acid-induced peak inward currents, rASIC3: HEK293, voltage clamp, increasing concentrations; for potency as antagonist compared to amiloride, rASIC3: full dose-inhibition curves, HEK293
# Protocol: Another example of an in vitro assessment method consists of using mammalian heterologous expression systems, which are known to the skilled in the art, and include a variety of mammalian cell lines such as COS, HEK, e.g., HEK293 and/or CHO, cells. Cell lines are transfected with gated ion channel(s) and used to perform electrophysiology as follows:
# All experiments are performed at room temperature (20-25° C.) in voltage clamp using conventional whole cell patch clamp methods (Neher, E., et al. (1978) Pfluegers Arch 375:219-228).
# The amplifier used is the EPC-9 (HEKA-electronics, Lambrect, Germany) run by a Macintosh G3 computer via an ITC-16 interface. Experimental conditions are set with the Pulse-software accompanying the amplifier. Data is low pass filtered and sampled directly to hard-disk at a rate of 3 times the cut-off frequency.
# Pipettes are pulled from borosilicate glass using a horizontal electrode puller (Zeitz-Instrumente, Augsburg, Germany). The pipette resistances are 2-3 MOhms in the salt solutions used in these experiments. The pipette electrode is a chloridized silver wire, and the reference is a silver chloride pellet electrode (In Vivo Metric, Healdsburg, USA) fixed to the experimental chamber. The electrodes are zeroed with the open pipette in the bath just prior to sealing.
# Coverslips with the cells are transferred to a 15 μl experimental chamber mounted on the stage of an inverted microscope (IMT-2, Olympus) supplied with Nomarski optics. Cells are continuously superfused with extracellular saline at a rate of 2.5 ml/min. After giga-seal formation, the whole cell configuration is attained by suction. The cells are held at a holding voltage of −60 mV and at the start of each experiment the current is continuously measured for 45 s to ensure a stable baseline. Solutions of low pH (<7) are delivered to the chamber through a custom-made gravity-driven flowpipe, the tip of which is placed approximately 50 μm from the cell. Application is triggered when the tubing connected to the flowpipe is compressed by a valve controlled by the Pulse-software. Initially, low pH (in general, pH 6.5) is applied for 5 s every 60 s. The sample interval during application is 5501s. […] Current amplitudes are measured at the peak of the responses, and effect of the compounds is calculated as the amplitude at compound equilibrium divided by the amplitude of the current evoked by the pulse just before the compound was included. […]
# HEK293 cells were transfected with rASIC1a or rASIC3 and were used to perform full dose-inhibition curves with Compound A, Compound H and amiloride. Results are expressed as a fraction of the control peak current obtained in the absence of the test substance.
Structure (SMILES),"inhibitory effect on acid-induced peak inward currents, rASIC3","potency as antagonist compared to amiloride, rASIC3"
"CCN1CCc2c(-c3ccccc3)cc3c(c2C1)NC(=O)/C3=N/O [Compound H, 5-phenyl-6,7,8,9-tetrahydro-3-(hydroxyimino)-8-ethyl-1H-pyrrolo[3,2-h]isoquinoline-2(3H)-one]",dose-dependently inhibit,more potent antagonists as compared to amiloride
"COc1ccc(F)cc1-c1cc2c(c3c1CCN(C)C3)NC(=O)/C2=N/O [Compound A, 5-(5-fluoro-2-methoxyphenyl)-6,7,8,9-tetrahydro-3-(hydroxyimino)-8-methyl-1H-pyrrolo[3,2-h]isoquinoline-2(3H)-one]",dose-dependently inhibit,more potent antagonists as compared to amiloride
